# Laboratory results as given in patent US20050267016A1, “CD-10 activated prodrug compounds” (priority 2001, published 2005).
# “And” between values parts separate entries of the source, which are not always exact repeats. Equal values may be shown once. Read-outs that look alike come from different tables or passages of the source.
# What was measured:
# [1] = test system: HT-29 (colon carcinoma) cells; test: cells; format: cell-based, human; settings: 48 hours total incubation, read-out: IC50 HT29
# Protocol: Adherent cells, LNCaP (prostate carcinoma), HT-29 (colon carcinoma) and PC-3 (prostate carcinoma), were cultured in DMEM media containing 10% heat inactivated fetal calf serum (FCS). On the day of the study the cells were detached from the plate with a trypsin solution. The collected cells were washed and resuspended at a concentration of 0.25×10^6 cells/ml in DMEM containing 10% FCS. 100 μl of cell suspension were added to 96 well plates and the plates were incubated for 3 hours to allow the cells to adhere. […] The plates were then incubated for 24 hours, pulsed with 10 μl of a 100 μCi/ml ^3H-thymidine and incubated for an additional 24 hours (total incubation time 48 hours). The plates were harvested using a 96 well Harvester (Packard Instruments) and counted on a Packard Top Count Counter. Four parameter logistic curves were fitted to the ^3H-thymidine incorporation as a function of drug molarity using Prism software to determine IC50 values.
# [2] = Single dose Maximum Tolerated Dose (MTD) study, 28 days; format: in vivo, mice; settings: mouse, in vivo; intravenous bolus, normal mice, 28 days
# Protocol: (§1) The mice were observed daily for 28 days and body weights measured twice weekly.
# as §1
# (§2) In the single dose Maximum Tolerated Dose (MTD) studies, groups of normal mice were administered intravenous bolus doses of the prodrug. The mice were observed daily for 28 days and body weights measured twice weekly. The MTD was estimated to be equal to the highest dose that produced no death in mice after 28 days.
# normal mice = test: as above; format: in vivo; settings: for single-dose MTD, fold higher than doxorubicin alone: 28 days
# Protocol: as §1, §1, §2
# [3] = test system: CD10 transfected CHO cells, Clone #8; test: 3H thymidine proliferation assay, CD10 transfected CHO Clone #8
# Protocol: (§5) The fully assembled coding region was sub-cloned into a mammalian expression vector, downstream of the hCMV-MIE promoter. DNA sequence analysis confirmed sequence identity with the coding sequence of human CD10 (Genbank accession number Y00811). The expression plasmid was linearized and stably transfected into CHO—S cells. CD10 expressing transfectant clones were selected under 500 ug/mL of hygromycin and screened by flow cytometry for cell-surface CD10 expression using a commercially available anti-CD10-FITC antibody.
# [4] = Repeat-dose MTD in tumor bearing mice; format: in vivo; settings: mouse, in vivo
# Protocol: (§3) In repeat-dose studies in tumor bearing mice, groups of ten mice were dosed with various amounts of prodrug for a total of five doses at either five day or 1 week intervals. […] Thus, the conclusion remains the same in that the prodrugs permit a much greater amount of therapeutic agent to be delivered to the body as a whole and to the vicinity of the target cell.
# (§4) As would be expected, when a dose similar to the single-dose MTD (75 mg/kg) (See Example 16) was administered as a repeat-dose it was less well tolerated. […] All treated animals lost weight progressively throughout the study, while the vehicle control group gained up to 12% of the mean initial body weight. (FIG. 20). Two treated animals in the high dose group were terminated due to signs of toxicity, with body weight loss of greater that 20% of their initial weight. […] Thus cumulative toxicity resulted from repeat-dosing at these relatively high dose-levels.
# [5] = test system: LS174t tumor bearing mice; test: Repeat-dose MTD in tumor bearing mice; format: in vivo
# Protocol: as §3, §4
# [6] = test system: prostate carcinoma LNCaP tumors; settings: for mean tumor weight of all mice when terminated: calculated, not shown; for Cancer Endpt.: tumor 1.5 g
# Protocol: The mice were weighed and tumors were measured (by caliper) at least once a week prior to start of dosing (Day 0), then twice a week during the study. Immediately before the start of dosing (Study Day −2 to Day 0), mice were randomized to various groups based on the weight of the tumors. […] Mice were euthanized after the tumors reached a cutoff weight of 1.5 g (cancer endpoint), or when mice suffered over 25% weight loss (toxic endpoint). Studies were terminated at Day 60.
# [7] = Metabolism and clearance in normal mice (plasma and urine, LC MS/MS); format: in vivo; settings: after Suc-βAla-Ile-Ala-Leu-Dox 117 mg/kg
# Parental CHO cells [8] = test: 3H thymidine proliferation assay, parental CHO; format: cell-based, Chinese Hamster; settings: for IC50: Cricetulus griseus; for Ratio Suc-β-Ala-Ile-Ala-Leu/Dox: Parental CHO, ratio of IC50
# [9] = test system: CD10 transfected CHO cells, Clone #3; test: 3H thymidine proliferation assay, CD10 transfected CHO Clone #3; format: cell-based, Chinese Hamster; settings: Cricetulus griseus, Table 25
# Protocol: as §5
# [10] = test system: CD10 transfected CHO cells, DB4; test: 3H thymidine proliferation assay, CD10 transfected CHO DB4
# Protocol: as §5
# LNCaP tumors = test: LNCaP xenograft in SCID mice, Q6DX2 (Example 24); format: in vivo, CB17.SCID mice; set-up: key to Tumor Weight: tumor weight in mg
# Protocol: The mean tumor weight was approximately 200 mg at Day 0. […] Studies were terminated at Day 60.
# [11] = test system: colorectal carcinoma LS174t xenograft; test: LS174t xenograft efficacy; format: in vivo, nude mice; settings: for Mean Day of Survival (MDS): animals whose tumors reached 1.5 g prior to Day 60; for long-term survivors: up to 60 days
# From the text: There were 4 and 2 long-term survivors in the low and high dose groups, respectively, compared with 0 in the vehicle control group.
# Parental CHO cells [12] = test: Conversion to Leu-Dox or Gly-Dox in cell supernatants, parental CHO; format: cell-based, Chinese Hamster; settings: 10 μM, 37° C.
# Protocol: To directly ask the question of whether the CD10 expressing cells were capable of cleaving the prodrug, supernatants from CD10 transfected or parental CHO cells treated with the compounds were collected. […] After incubation for 1, 4, and 24 hours, an aliquot of each supernatant was transferred to a 96-well plate and frozen at −20° C. Samples were subsequently thawed and analyzed by reversed phase HPLC (4.6×50 mm 21 TSK Super-ODS column) with fluorescence detection after dilution with 3 volumes of acetonitrile, removal of precipitate by centrifugation, and further dilution into 3 volumes of water. When incubated with Suc-βAla-Leu-Ala-Leu-Dox, there was no detectable metabolism to Leu-Dox observed with the parental cell line while clone 8 (CD10 transfected) generated significant levels of Leu-Dox from Suc-βAla-Leu-Ala-Leu-Dox (Table 27).
compound,measurement,setting,value
CC[C@H](C)[C@H](NC(=O)CCC(=O)O)C(=O)N[C@@H](C)C(=O)N[C@@H](CC(C)C)C(=O)N[C@H]1C[C@H](O[C@H]2C[C@](O)(C(=O)CO)Cc3c(O)c4c(c(O)c32)C(=O)c2c(OC)cccc2C4=O)O[C@@H](C)[C@H]1O [Suc-Ile-Ala-Leu-Dox],IC50,[1],47000 nM
same,MTD,[2],≥ 66 mg/kg
same,"single-dose MTD, fold higher than doxorubicin alone",normal mice,at least 16 fold
same,28-day single-dose Maximum Tolerated Dose (MTD),"normal mice; intravenous bolus, normal mice",> 117 mg/kg
"COc1cccc2c1C(=O)c1c(O)c3c(c(O)c1C2=O)C[C@@](O)(C(=O)CO)C[C@@H]3O[C@H]1C[C@H](N)[C@H](O)[C@H](C)O1 [Doxorubicin, reference compound]",IC50,"[3]; Cricetulus griseus, CHO, read-out: IC50 Clone #8",570 nM
same,IC50,"[1]; Homo sapiens, HT-29",52 nM
same,MTD at 60 days,"[4]; Q 7D × 5, tumor bearing mice",4 mg/kg
same,"Repeat Dose MTD, doxorubicin equivalent dose (in parentheses)",[5]; Q 7D × 5,4 (4) mg/kg
same,RD-MTD as total exposure after 5 doses,[5]; total of 5 doses,20 mg/kg doxorubicin equivalent
same,mean tumor weight of all mice when terminated,[6]; 5 mg/kg Q7DX5,967 mg
same,Cancer Endpt.,[6]; 5 mg/kg Q7DX5,0
same,% Tumor Growth Inhibition D14,[6]; 5 mg/kg i.v. Q7DX5,D14: 32 ± 16%
same,Survivor (day 60),[6]; 5 mg/kg i.v. Q7DX5,1
same,Tumor Weight D14,[6]; 5 mg/kg i.v. Q7DX5,D14: 567 ± 77
same,Urine (% adm. dose) 2 hr,[7]; collected 0-2 hours,0.21 % adm. dose
same,Urine (% adm. dose) 24 hr,[7]; collected 2-24 hours,0.51 % adm. dose
same,IC50,"Parental CHO cells [8]; CHO, Tables 25, 26, read-out: IC50 Parental CHO",510 nM
same,IC50,"Parental CHO cells [8]; CHO cells, average, read-out: average IC50 in CHO cells",570 nM
same,IC50,[9],550 nM
same,IC50,"[10]; Cricetulus griseus, CHO, read-out: IC50 DB4",310 nM
same,Toxic Endpt.,LNCaP tumors; 3 mg/kg Q6DX2,1
same,% Tumor Growth Inhibition,"LNCaP tumors; 3 mg/kg Q6DX2, Day 12",21 ± 8%
same,Tumor Weight,"LNCaP tumors; 3 mg/kg Q6DX2, Day 12",328 ± 35
same,Survivor (day 22),"LNCaP tumors; 3 mg/kg Q6DX2, groups of ten",9
same,Toxic Endpt.,LNCaP tumors; 4 mg/kg Q6DX2,2
same,% Tumor Growth Inhibition,"LNCaP tumors; 4 mg/kg Q6DX2, Day 12",26 ± 6%
same,Tumor Weight,"LNCaP tumors; 4 mg/kg Q6DX2, Day 12",310 ± 25
same,Survivor (day 22),"LNCaP tumors; 4 mg/kg Q6DX2, groups of ten",8
CC[C@H](C)[C@H](NC(=O)CCNC(=O)CCC(=O)O)C(=O)N[C@@H](C)C(=O)N[C@@H](CC(C)C)C(=O)N[C@H]1C[C@H](O[C@H]2C[C@](O)(C(=O)CO)Cc3c(O)c4c(c(O)c32)C(=O)c2c(OC)cccc2C4=O)O[C@@H](C)[C@H]1O [Suc-βAla-Ile-Ala-Leu-Dox],IC50 difference to Dox,[3]; CD10 transfected CHO cells,~16 fold
same,Ratio Suc-β-Ala-Ile-Ala-Leu/Dox,"[3]; Clone #8, ratio of IC50",15
same,MTD,[2],40 mg/kg
same,animals euthanized due to treatment-related toxicity,"normal mice; 100 mg/kg, Day 21, groups of five",two
same,animals euthanized due to treatment-related toxicity,"normal mice; 125 mg/kg, Day 14, groups of five",four
same,"single-dose MTD, fold higher than doxorubicin alone",normal mice,approximately 10 fold
same,MTD,"[4]; total of 5 doses, read-out: RD-MTD as total exposure after 5 doses",~150 mg/kg
same,animals terminated due to signs of toxicity,"[5]; 68 mg/kg Q5DX5, groups of ten",Two
same,Ratio Suc-β-Ala-Ile-Ala-Leu/Dox,Parental CHO cells [8],49
same,Ratio Suc-β-Ala-Ile-Ala-Leu/Dox,Parental CHO cells [8]; listed as Suc-β-Ala-Ile-Ala-Leu,96
same,Ratio Suc-β-Ala-Ile-Ala-Leu/Dox,"[10]; DB4, ratio of IC50",14
same,Mean Day of Survival (MDS),[11]; 53 mg/kg Q5DX5,29.7 days
same,long-term survivors,"[11]; 53 mg/kg i.v. Q5DX5, groups of ten",4
same,Mean Day of Survival (MDS),[11]; 68 mg/kg Q5DX5,23.4 days
same,long-term survivors,"[11]; 68 mg/kg i.v. Q5DX5, groups of ten",2
COc1cccc2c1C(=O)c1c(O)c3c(c(O)c1C2=O)C[C@@](O)(C(=O)CO)C[C@@H]3O[C@H]1C[C@H](NC(=O)[C@H](CC(C)C)NC(=O)[C@H](C)NC(=O)[C@H](CC(C)C)NC(=O)CCNC(=O)CCC(=O)O)[C@H](O)[C@H](C)O1 [Suc-βAla-Leu-Ala-Leu-Dox],Conversion rate to Leu-Dox or Gly-Dox,Parental CHO cells [12],0 mM/h
same,Percent Conversion/Hour to Leu-Dox or Gly-Dox,Parental CHO cells [12],0 Percent Conversion/Hour
same,mean tumor weight of all mice when terminated,[6]; 59 mg/kg Q7DX5,232 mg
same,Toxic Endpt.,"[6]; 59 mg/kg Q7DX5, over 25% weight loss",7 of 7 and 7
same,Cancer Endpt.,[6]; 59 mg/kg Q7DX5,0
same,% Tumor Growth Inhibition D14,[6]; 59 mg/kg i.v. Q7DX5,D14: 53 ± 15 %
same,% Tumor Growth Inhibition D21,[6]; 59 mg/kg i.v. Q7DX5,D21: 66 ± 15 %
same,Survivor (day 60),[6]; 59 mg/kg i.v. Q7DX5,0
same,Tumor Weight D14,[6]; 59 mg/kg i.v. Q7DX5,D14: 391 ± 70
same,Tumor Weight D21,[6]; 59 mg/kg i.v. Q7DX5,D21: 318 ± 67
same,Toxic Endpt.,LNCaP tumors; 40 mg/kg Q6DX2,0
same,Tumor Weight,"LNCaP tumors; 40 mg/kg Q6DX2, Day 12",244 ± 25
same,Survivor (day 22),"LNCaP tumors; 40 mg/kg Q6DX2, groups of ten",10
same,Toxic Endpt.,LNCaP tumors; 50 mg/kg Q6DX2,5
same,Tumor Weight,"LNCaP tumors; 50 mg/kg Q6DX2, Day 12",168 ± 29
same,Survivor (day 22),"LNCaP tumors; 50 mg/kg Q6DX2, groups of ten",5
same,Toxic Endpt.,LNCaP tumors; 62 mg/kg Q6DX2,6
same,Tumor Weight,"LNCaP tumors; 62 mg/kg Q6DX2, Day 12",196 ± 22
same,Survivor (day 22),"LNCaP tumors; 62 mg/kg Q6DX2, groups of ten",4
